The values below come from US12414952B2 (Merck Sharp & Dohme LLC, priority 2018, dated 2025).

Broadly, the IC50 is the concentration that gives 50% inhibition. Higher therefore signals lower potency.

Assay [1] concerns the target T1, human A2a adenosine receptor (Homo sapiens (Human), UniProt P29274). Briefly: A2a binding affinity using an alternative radioligand binding assay, Method (C). The note with it: Method (C): [3H]CGS21680, CHO.A2a membranes. From the text: (§1) The A2a receptor affinity binding assay measured the amount of binding of a tritiated ligand with high affinity for the A2a adenosine receptor to membranes made from HEK293 or CHO cells recombinantly expressing the human A2a adenosine receptor, in the presence of varying concentrations of a compound of the invention. The data were generated using either filtration binding or a homogenous scintillation proximity assay (SPA).
Method (C): Measurement of A2a Binding Affinity Using an Alternative Radioligand Binding Assay
Membranes used in this procedure were made by washing cell cultures twice with DPBS buffer (Dulbecco's phosphate buffered saline without calcium and magnesium, ThermoFisher Scientific, Cat. No. A1285601), and harvesting the cell cultures by mechanical scraping. The cells were collected by centrifugation and re-suspended in 10 mM HEPES, pH 7.4 containing 0.1 mM benzamidine (Sigma, Cat. No. B6506) and 0.1 mM PMSF (phenylmethylsulfonyl fluoride, Sigma, Cat. No. 10837091001). Cells were freeze-thawed twice in a dry ice/ethanol bath and homogenized with 25 to 30 strokes in a glass dounce homogenizer (Wheaton, Cat. No. 357546). Membranes were pelleted at 40,000×g for 20 min at 4° C. and re-suspended in assay buffer (5 mM HEPES, pH 7.4, 5 mM MgCl2; supplemented with 0.1 mM benzamidine) at a protein concentration of 2.6 mg/mL. Protein concentration was determined by the Bio-Rad method (Bio-Rad, Cat. No. 5000002). Membranes were then incubated with adenosine deaminase (final concentration 2U/mL) for 20 min at 37° C. before use in the binding assay.
To perform the binding assay, 50 μg CHO.A2a membranes, 5 nM [^3H]CGS21680 (Perkin Elmer, Cat. No. NET1021), and 1 μL of test compound were combined in individual tubes to a volume of 100 μL. To define total and non-specific binding, wells containing 1% DMSO and 20 μM N-ethylcarboxamidoadenosine (Tocris Bioscience, Cat. No. 1691) respectively, were also included. The samples were incubated for 2 h at 37° C. The samples were filtered rapidly through a glass fiber filter using a cell harvester and washed with cold buffer (10 mM Tris, pH7.4, 5 mM MgCl2). The filter was allowed to dry and individual filters were placed into vials together with liquid scintillant and subjected to scintillation counting. After normalization to total and non-specific binding, the percent effect at each compound concentration was calculated. The plot of percent effect versus the log of compound concentration was analyzed electronically using a 4-parameter logistic fit based on the Levenberg-Marquardt algorithm to generate IC50 values.

The target of assay [2] is T1, human A2a adenosine receptor. In words: A2a receptor affinity binding assay, method not indicated. The note with it: method letter not given.
From the text: Method (A) describes the procedure used to measure A2a binding affinity using radioligand binding. Method (B) describes the procedure used to measure A2a binding affinity using SPA technology. Method (C) describes an alternative procedure used to measure A2a binding affinity using radioligand binding. The method used to measure A2b binding affinity is also described below. The method used to determine the A2a IC50 value reported for each compound in the table is indicated next to the reported value. The A2b IC50 value measured using the A2b binding affinity assay is shown in the table next to the compound under the corresponding A2a value.
as §1

Structures are written as SMILES.

T1 sequence (P29274 whole entry): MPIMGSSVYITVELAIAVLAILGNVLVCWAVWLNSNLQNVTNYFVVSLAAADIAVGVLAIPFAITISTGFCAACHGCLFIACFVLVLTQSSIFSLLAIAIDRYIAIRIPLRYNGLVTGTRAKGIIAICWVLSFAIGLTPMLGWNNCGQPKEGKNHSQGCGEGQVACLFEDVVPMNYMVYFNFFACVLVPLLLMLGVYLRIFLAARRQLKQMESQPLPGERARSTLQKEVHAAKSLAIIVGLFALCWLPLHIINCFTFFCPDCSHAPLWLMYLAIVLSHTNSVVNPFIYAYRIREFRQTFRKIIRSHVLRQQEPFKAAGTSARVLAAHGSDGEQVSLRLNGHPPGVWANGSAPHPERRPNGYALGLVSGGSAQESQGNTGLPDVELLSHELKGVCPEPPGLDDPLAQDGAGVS

In assay [1], `Nc1nc(-c2cccc(F)c2)cc2nc(CCN3CC(F)(F)C3)nn12` [Example 2.21] registered an IC50 of 91.7 nM.

Regarding `Nc1nc(-c2ccc(F)cc2)cc2nc(CCN3CC(F)(F)C3)nn12` [Example 2.22], in assay [1], the IC50 is 275 nM.

`Nc1nc(-c2ccccc2)cc2nc(CCN3CC(F)(F)C3)nn12` [Example 2.23]: the IC50 in assay [1] was determined as 150 nM.

Consider `Cc1c(-c2ccc(F)cc2)nc(N)c2nc(CCN3CCn4c(cnc4C(C)C)C3)nn12` [Example 18.6, 6-(4-fluorophenyl)-2-(2-(3-isopropyl-5,6-dihydroimidazo[1,5-a]pyrazin-7(8H)-yl)ethyl)-5-methyl-[1,2,4] triazolo[1,5-a]pyrazin-8-amine], for which the IC50 in assay [2] worked out at 346 nM.
